Assay results as given in PubChem BioAssay (NCI).
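Test compounds were applied to cells in 96-well plates for 48 hours at 5 doses. TGI: total growth inhibition.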

Key:
Assay in all cases: DTP human tumour cell line panel, 48 h
786-0 renal = tested on: 786-0 renal
A549 NSCLC = tested on: A549 NSCLC
ACHN renal = tested on: ACHN renal
BT-549 breast = tested on: BT-549 breast
CAKI-1 renal = tested on: CAKI-1 renal
CCRF-CEM leukemia = tested on: CCRF-CEM leukemia
COLO 205 colon = tested on: COLO 205 colon
DU-145 prostate = tested on: DU-145 prostate
EKVX NSCLC = tested on: EKVX NSCLC
HCC-2998 colon = tested on: HCC-2998 colon
HCT-116 colon = tested on: HCT-116 colon
HCT-15 colon = tested on: HCT-15 colon
HL-60(TB) leukemia = tested on: HL-60(TB) leukemia
HOP-92 NSCLC = tested on: HOP-92 NSCLC
HS 578T breast = tested on: HS 578T breast
HT29 colon = tested on: HT29 colon
IGROV1 ovarian = tested on: IGROV1 ovarian
KM12 colon = tested on: KM12 colon
LOX IMVI melanoma = tested on: LOX IMVI melanoma
MALME-3M melanoma = tested on: MALME-3M melanoma
MCF7 breast = tested on: MCF7 breast
MDA-MB-231 breast = tested on: MDA-MB-231 breast
MDA-MB-435 = tested on: MDA-MB-435
MDA-N = tested on: MDA-N
MOLT-4 leukemia = tested on: MOLT-4 leukemia
NCI-H226 lung = tested on: NCI-H226 lung
NCI-H23 lung = tested on: NCI-H23 lung
NCI-H460 lung = tested on: NCI-H460 lung
NCI-H522 lung = tested on: NCI-H522 lung
NCI/ADR-RES ovarian = tested on: NCI/ADR-RES ovarian
OVCAR-4 ovarian = tested on: OVCAR-4 ovarian
OVCAR-8 ovarian = tested on: OVCAR-8 ovarian
PC-3 prostate = tested on: PC-3 prostate
RPMI-8226 leukemia = tested on: RPMI-8226 leukemia
RXF 393 renal = tested on: RXF 393 renal
SF-268 CNS = tested on: SF-268 CNS
SF-295 CNS = tested on: SF-295 CNS
SF-539 CNS = tested on: SF-539 CNS
SK-MEL-2 melanoma = tested on: SK-MEL-2 melanoma
SK-MEL-28 melanoma = tested on: SK-MEL-28 melanoma
SK-MEL-5 melanoma = tested on: SK-MEL-5 melanoma
SK-OV-3 ovarian = tested on: SK-OV-3 ovarian
SN12C renal = tested on: SN12C renal
SNB-19 CNS = tested on: SNB-19 CNS
SR leukemia = tested on: SR leukemia
SW-620 colon = tested on: SW-620 colon
T-47D breast = tested on: T-47D breast
TK-10 renal = tested on: TK-10 renal
U251 CNS = tested on: U251 CNS
UACC-257 melanoma = tested on: UACC-257 melanoma
UACC-62 melanoma = tested on: UACC-62 melanoma
UO-31 renal = tested on: UO-31 renal
A498 renal = tested on: A498 renal
HOP-62 NSCLC = tested on: HOP-62 NSCLC
K-562 leukemia = tested on: K-562 leukemia
M14 melanoma = tested on: M14 melanoma
OVCAR-3 ovarian = tested on: OVCAR-3 ovarian
OVCAR-5 ovarian = tested on: OVCAR-5 ovarian
SNB-75 CNS = tested on: SNB-75 CNS

CC(C)=CCN=C(N)N
TGI (786-0 renal): > 100 µM | TGI (A549 NSCLC): > 100 µM | TGI (ACHN renal): > 100 µM | TGI (BT-549 breast): > 100 µM | TGI (CAKI-1 renal): > 100 µM | TGI (CCRF-CEM leukemia): > 100 µM | TGI (COLO 205 colon): > 100 µM | TGI (DU-145 prostate): > 100 µM | TGI (EKVX NSCLC): > 100 µM | TGI (HCC-2998 colon): > 100 µM | TGI (HCT-116 colon): > 100 µM | TGI (HCT-15 colon): > 100 µM | TGI (HL-60(TB) leukemia): > 100 µM | TGI (HOP-92 NSCLC): > 100 µM | TGI (HS 578T breast): > 100 µM | TGI (HT29 colon): > 100 µM | TGI (IGROV1 ovarian): > 100 µM | TGI (KM12 colon): > 100 µM | TGI (LOX IMVI melanoma): > 100 µM | TGI (MALME-3M melanoma): > 100 µM | TGI (MCF7 breast): > 100 µM | TGI (MDA-MB-231 breast): > 100 µM | TGI (MDA-MB-435): > 100 µM | TGI (MDA-N): > 100 µM | TGI (MOLT-4 leukemia): > 100 µM | TGI (NCI-H226 lung): > 100 µM | TGI (NCI-H23 lung): > 100 µM | TGI (NCI-H460 lung): > 100 µM | TGI (NCI-H522 lung): > 100 µM | TGI (NCI/ADR-RES ovarian): > 100 µM | TGI (OVCAR-4 ovarian): > 100 µM | TGI (OVCAR-8 ovarian): > 100 µM | TGI (PC-3 prostate): > 100 µM | TGI (RPMI-8226 leukemia): 99.7 µM | TGI (RXF 393 renal): > 100 µM | TGI (SF-268 CNS): > 100 µM | TGI (SF-295 CNS): > 100 µM | TGI (SF-539 CNS): > 100 µM | TGI (SK-MEL-2 melanoma): > 100 µM | TGI (SK-MEL-28 melanoma): > 100 µM | TGI (SK-MEL-5 melanoma): > 100 µM | TGI (SK-OV-3 ovarian): > 100 µM | TGI (SN12C renal): > 100 µM | TGI (SNB-19 CNS): > 100 µM | TGI (SR leukemia): 83.6 µM | TGI (SW-620 colon): > 100 µM | TGI (T-47D breast): > 100 µM | TGI (TK-10 renal): > 100 µM | TGI (U251 CNS): > 100 µM | TGI (UACC-257 melanoma): > 100 µM | TGI (UACC-62 melanoma): > 100 µM | TGI (UO-31 renal): > 100 µM

O=C1C2CCCCC2C(=O)N1n1c(Cc2ccc(Cl)cc2)n[nH]c1=O (stereo not drawn)
TGI (786-0 renal): > 100 µM | TGI (A498 renal): > 100 µM | TGI (A549 NSCLC): > 100 µM | TGI (ACHN renal): > 100 µM | TGI (BT-549 breast): > 100 µM | TGI (CAKI-1 renal): > 100 µM | TGI (CCRF-CEM leukemia): > 100 µM | TGI (COLO 205 colon): > 100 µM | TGI (EKVX NSCLC): > 100 µM | TGI (HCC-2998 colon): > 100 µM | TGI (HCT-116 colon): > 100 µM | TGI (HCT-15 colon): > 100 µM | TGI (HOP-62 NSCLC): > 100 µM | TGI (HOP-92 NSCLC): > 100 µM | TGI (HS 578T breast): > 100 µM | TGI (HT29 colon): > 100 µM | TGI (IGROV1 ovarian): > 100 µM | TGI (K-562 leukemia): > 100 µM | TGI (KM12 colon): > 100 µM | TGI (LOX IMVI melanoma): > 100 µM | TGI (M14 melanoma): > 100 µM | TGI (MALME-3M melanoma): > 100 µM | TGI (MCF7 breast): > 100 µM | TGI (MDA-MB-231 breast): > 100 µM | TGI (MDA-MB-435): > 100 µM | TGI (MDA-N): > 100 µM | TGI (MOLT-4 leukemia): > 100 µM | TGI (NCI-H226 lung): > 100 µM | TGI (NCI-H23 lung): > 100 µM | TGI (NCI-H460 lung): > 100 µM | TGI (NCI-H522 lung): > 100 µM | TGI (NCI/ADR-RES ovarian): > 100 µM | TGI (OVCAR-3 ovarian): > 100 µM | TGI (OVCAR-4 ovarian): > 100 µM | TGI (OVCAR-5 ovarian): > 100 µM | TGI (OVCAR-8 ovarian): > 100 µM | TGI (PC-3 prostate): > 100 µM | TGI (RPMI-8226 leukemia): > 100 µM | TGI (RXF 393 renal): > 100 µM | TGI (SF-268 CNS): > 100 µM | TGI (SF-295 CNS): > 100 µM | TGI (SF-539 CNS): > 100 µM | TGI (SK-MEL-2 melanoma): > 100 µM | TGI (SK-MEL-5 melanoma): > 100 µM | TGI (SK-OV-3 ovarian): > 100 µM | TGI (SN12C renal): > 100 µM | TGI (SNB-19 CNS): > 100 µM | TGI (SNB-75 CNS): > 100 µM | TGI (SR leukemia): > 100 µM | TGI (SW-620 colon): > 100 µM | TGI (T-47D breast): > 100 µM | TGI (TK-10 renal): > 100 µM | TGI (U251 CNS): > 100 µM | TGI (UACC-257 melanoma): > 100 µM | TGI (UACC-62 melanoma): > 100 µM | TGI (UO-31 renal): > 100 µM
